Results taken from patent publication US12252524B2, “GIP/GLP1 co-agonist compounds” (Eli Lilly and Company, priority 2018, dated 2025).
Like-named read-outs stand apart in the source and are kept apart here. Numbered stars: 1 amine (or outer) side, 2 acyl side, 3 side chain; on linkers, the order of the positions; unused ones are H or OH. Square brackets hold non-standard residues; d marks the D form. Side chains are listed from the residue outwards. Peptide text beside a SMILES is read from it. * marks the point of attachment. C20 diacid = O=C(O)CCCCCCCCCCCCCCCCCCC(=O)*; C18 diacid = O=C(O)CCCCCCCCCCCCCCCCC(=O)*; αMePhe(2-F) = C[C@](N)(Cc1ccccc1F)C(=O)O; γGlu = O=C(O)[C@H](CCC(=O)[*:2])N[*:1]; αMeF = C[C@](N)(Cc1ccccc1)C(=O)O; αMeL = CC(C)C[C@](C)(N)C(=O)O; AEEA = NCCOCCOCC(=O)O; Aib = CC(C)(N)C(=O)O

Assays:
human GLP-1R = human GLP-1R (Homo sapiens, UniProt P43220); assay: GLP-1R HEK293 cell membrane [35S]GTPγS binding assay; assay type: biochemical; set-up: expressed in transfected cells; host or cells: HEK293 cells expressing human GLP-1R; membranes
Sequence of human GLP-1R (P43220 24-463): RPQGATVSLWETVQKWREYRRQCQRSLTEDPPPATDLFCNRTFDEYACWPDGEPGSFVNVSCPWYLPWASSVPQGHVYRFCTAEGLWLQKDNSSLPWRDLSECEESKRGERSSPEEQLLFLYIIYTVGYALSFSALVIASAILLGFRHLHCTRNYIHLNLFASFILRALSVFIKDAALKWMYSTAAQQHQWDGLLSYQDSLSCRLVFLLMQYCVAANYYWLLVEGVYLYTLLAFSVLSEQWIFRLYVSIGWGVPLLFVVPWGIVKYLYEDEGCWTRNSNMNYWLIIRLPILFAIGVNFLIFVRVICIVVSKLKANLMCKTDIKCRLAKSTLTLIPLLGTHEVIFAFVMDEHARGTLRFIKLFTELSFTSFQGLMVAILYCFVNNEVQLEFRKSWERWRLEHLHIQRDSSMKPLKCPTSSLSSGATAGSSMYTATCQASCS
Outline: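 Membranes from HEK293 cells expressing the receptor incubated with peptide and […] [35S]GTPγS in HEPES pH 7.4 buffer with NaCl, MgCl2, saponin and BSA, 30 min at room temperature. Gαs-bound label captured by anti-Gαs antibody/SPA beads and counted; EC50 from four-parameter logistic fit.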

[1] = system: CD8+ T cell depleted peripheral blood mononuclear cells
[2] = single subcutaneous 50 nMol/kg, male cynomolgus monkeys
Procedure: (§1) Pharmacokinetics in male Cynomolgus Monkeys The pharmacokinetics of select Examples are evaluated following a single subcutaneous administration of 50 nMol/kg to male cynomolgus monkeys. […] Peptide plasma (K3 EDTA) concentrations are determined using a qualified LC/MS method that measured the intact mass of the compound. […] Instruments are combined for LC/MS detection.

[3] = single subcutaneous 50 nMol/kg, male Sprague Dawley rats; mean (SD)
Procedure: (§2) The pharmacokinetics of select Examples are evaluated following a single subcutaneous (SC) administration of 50 nMol/kg (dissolved in PBS, pH 7.4) or single 1 μmol/kg (mixed with 250 mM sodium decanoate (“C10”) and 12 mg/mL soybean trypsin inhibitor (SBTI)) intrajejunal (IJ) administration to male Sprague Dawley rats. […] Pharmacokinetic parameters are calculated using individual plasma concentrations. A qualified LC/MS method that measures the intact mass of the Example is used to determine plasma (K3 EDTA) concentrations. Each Example is tested with an analog peptide as an internal standard. Immunoaffinity based precipitation with anti-GIP/GLP1 antibodies is used to extract each test peptide and analog.

[4] = single subcutaneous 200 nMol/kg, male CD-1 mice
Procedure: (§3) The pharmacokinetics of select Examples are evaluated following a single subcutaneous administration of 200 nMol/kg to male CD-1 mice. […] Plasma (K3 EDTA) concentrations are determined using a qualified LC/MS method that measures the intact mass of the Examples. […] Instruments are combined for LC/MS detection.

in vivo [5] = conditions: male, Sprague Dawley, rat, plasma, other: intrajejunal, 1 umol/kg
Procedure: as §2

[6] = single intrajejunal 1 μmol/kg with 250 mM C10 and 12 mg/mL SBTI, male Sprague Dawley rats
Procedure: as §2

[7] = Proteolytic stability assay in 1% rat small intestinal fluid (rSIF)
Procedure: The stability of peptides are compared in 1% rat small intestinal fluid (rSIF). The amount of intact peptide is measured for a sample peptide at 0, 3, 15, and 30 minutes to assess proteolytic stability. The amount of intact peptide for a sample peptide is measured in 90% pig small intestinal fluid (pSIF) at 0, 30, 45, and 60 minutes to assess the proteolytic stability.
Peptides are prepared at 0.4 mg/mL in 50 mM Tris pH8.0. […] The mixture is incubated at 37° C. at 150 rpm. Thirty μL of each sample are removed and placed into a new tube before the rSIF is added and at […]. At each time point, the reaction was quenched by 1% TFA in 50% ACN at 1:1. The samples are diluted 100 times using dilution buffer (1:1 of 1% TFA in 50% ACN: 50 mM Tris pH8) and ready for analysis using mass spectrometry (MS).
The data analysis is performed using MassLynx.

in vivo [8] = conditions: male, cynomolgus monkey, plasma, sc, 50 nmol/kg
Procedure: as §1

in vivo [9] = conditions: male, CD-1, mouse, plasma, sc, 200 nmol/kg
Procedure: as §3

in vivo [10] = conditions: male, Sprague Dawley, rat, plasma, sc, 50 nmol/kg
Procedure: as §2

[11] = system: CD8+ T cell depleted peripheral blood mononuclear cells; assay: CD4+ T cell assay for potential clinical immunogenicity
[12] = HEK293 cell membranes expressing human GLP-1R, [35S]GTPγS binding, read-out: hGLP1R GTPgS Rel EC50 nM (SEM, n)
[13] = rat, real gastrointestinal fluid or homogenate, pH 8
[14] = Examples 10 uM, KLH 0.33 μM, 7 days

CC[C@H](C)[C@H](NC(=O)[C@H](CC(C)C)NC(=O)[C@H](Cc1ccc(O)cc1)NC(=O)[C@H](CCC(=O)O)NC(=O)[C@@H](NC(=O)[C@H](Cc1ccccc1)NC(=O)[C@H](C)NC(=O)C(C)(C)NC(=O)[C@H](CCC(N)=O)NC(=O)[C@H](C)NC(=O)[C@H](CCCCNC(=O)COCCOCCNC(=O)COCCOCCNC(=O)CC[C@H](NC(=O)CCCCCCCCCCCCCCCCC(=O)O)C(=O)O)NC(=O)[C@H](CCCCN)NC(=O)[C@H](CC(=O)O)NC(=O)[C@H](CC(C)C)NC(=O)[C@H](CC(C)C)NC(=O)[C@@H](NC(=O)[C@H](CO)NC(=O)[C@H](Cc1ccc(O)cc1)NC(=O)[C@H](CC(=O)O)NC(=O)[C@H](CO)NC(=O)[C@@H](NC(=O)[C@](C)(Cc1ccccc1)NC(=O)[C@@H](NC(=O)CNC(=O)[C@H](CCC(=O)O)NC(=O)C(C)(C)NC(=O)[C@@H](N)Cc1ccc(O)cc1)[C@@H](C)O)[C@@H](C)O)[C@@H](C)CC)[C@@H](C)CC)C(=O)N[C@@H](CCC(=O)O)C(=O)NCC(=O)NCC(=O)N1CCC[C@H]1C(=O)N[C@@H](CO)C(=O)N[C@@H](CO)C(=O)NCC(N)=O [Example 301] (H-Y[Aib]EGT[αMeF]TSDYSILLDKK([AEEA-AEEA-γGlu-C18 diacid])AQ[Aib]AFIEYLIEGGPSSG-NH2)
EC50 (human GLP-1R; [12]): 0.435 nM | frequency of positive CD+ T cell response (CDI>2.5) [1]: low

CC[C@H](C)[C@H](NC(=O)[C@H](CC(C)C)NC(=O)[C@H](Cc1ccc(O)cc1)NC(=O)[C@H](CCC(=O)O)NC(=O)[C@@H](NC(=O)[C@H](Cc1ccccc1)NC(=O)[C@H](C)NC(=O)C(C)(C)NC(=O)[C@H](CCC(N)=O)NC(=O)[C@H](C)NC(=O)[C@H](CCCCNC(=O)COCCOCCNC(=O)COCCOCCNC(=O)CC[C@H](NC(=O)CCCCCCCCCCCCCCCCC(=O)O)C(=O)O)NC(=O)[C@H](CCCCN)NC(=O)[C@H](CC(=O)O)NC(=O)[C@H](CC(C)C)NC(=O)[C@H](CC(C)C)NC(=O)[C@@H](NC(=O)[C@H](CO)NC(=O)[C@H](Cc1ccc(O)cc1)NC(=O)[C@H](CC(=O)O)NC(=O)[C@H](CO)NC(=O)[C@@H](NC(=O)[C@H](Cc1ccccc1)NC(=O)[C@@H](NC(=O)CNC(=O)[C@H](CCC(=O)O)NC(=O)C(C)(C)NC(=O)[C@@H](N)Cc1ccc(O)cc1)[C@@H](C)O)[C@@H](C)O)[C@@H](C)CC)[C@@H](C)CC)C(=O)N[C@@H](C)C(=O)NCC(=O)NCC(=O)N1CCC[C@H]1C(=O)N[C@@H](CO)C(=O)N[C@@H](CO)C(=O)NCC(=O)N[C@@H](C)C(=O)N1CCC[C@H]1C(=O)N1CCC[C@H]1C(=O)N1CCC[C@H]1C(=O)N[C@@H](CO)C(N)=O [Example 316] (H-Y[Aib]EGTFTSDYSILLDKK([AEEA-AEEA-γGlu-C18 diacid])AQ[Aib]AFIEYLIAGGPSSGAPPPS-NH2)
EC50 (human GLP-1R; [12]): 0.766 nM | frequency of positive CD+ T cell response (CDI>2.5) [1]: low

CC[C@H](C)[C@H](NC(=O)[C@H](CC(C)C)NC(=O)[C@H](Cc1ccc(O)cc1)NC(=O)[C@@H](CCC(=O)O)NC(=O)[C@@H](NC(=O)[C@H](Cc1ccccc1)NC(=O)[C@H](CCC(=O)O)NC(=O)C(C)(C)NC(=O)[C@H](CCC(N)=O)NC(=O)[C@H](C)NC(=O)[C@H](CCCCNC(=O)COCCOCCNC(=O)COCCOCCNC(=O)CC[C@H](NC(=O)CCCCCCCCCCCCCCCCCCC(=O)O)C(=O)O)NC(=O)[C@H](CCC(=O)O)NC(=O)[C@H](CC(=O)O)NC(=O)[C@H](CC(C)C)NC(=O)[C@](C)(CC(C)C)NC(=O)[C@@H](NC(=O)[C@H](CO)NC(=O)[C@H](Cc1ccc(O)cc1)NC(=O)[C@H](CC(=O)O)NC(=O)[C@H](CO)NC(=O)[C@@H](NC(=O)[C@](C)(Cc1ccccc1F)NC(=O)[C@@H](NC(=O)CNC(=O)[C@H](CCC(=O)O)NC(=O)C(C)(C)NC(=O)[C@@H](N)Cc1ccc(O)cc1)[C@@H](C)O)[C@@H](C)O)[C@@H](C)CC)[C@@H](C)CC)C(=O)N[C@@H](CCC(=O)O)C(=O)NCC(=O)NCC(=O)N1CCC[C@H]1C(=O)N[C@@H](CO)C(=O)N[C@@H](CO)C(=O)NCC(=O)N[C@@H](C)C(=O)N1CCC[C@H]1C(=O)N1CCC[C@H]1C(=O)N1CCC[C@H]1C(=O)N[C@@H](CO)C(N)=O [Example 1] (H-Y[Aib]EGT[αMePhe(2-F)]TSDYSI[αMeL]LDEK([AEEA-AEEA-γGlu-C20 diacid])AQ[Aib]EFI[dE]YLIEGGPSSGAPPPS-NH2)
AUCINF_D_obs [2]: 1458 hr*kg*nmol/L/nmol | Cmax/D [2]: 6.5 kg*nmol/L/nmol | AUCINF_D_obs [3]: 294.2 (30.0) hr*kg*nmol/L/nmol | Cmax/D [3]: 3.34 (0.22) kg*nmol/L/nmol | EC50 (human GLP-1R): 0.235 nM | AUCINF_D_obs [4]: 135.61 hr*kg*nmol/L/nmol | Cmax/D [4]: 4.84 kg*nmol/L/nmol | Tmax (in vivo [5]): 1.33 h | AUCINF_D_obs [6]: 1.31 hr*kg*nmol/L/nmol | Cmax/D ([6]; mean (SD)): 0.08 (0.05) kg*nmol/L/nmol | percentage of peptide not cleaved using rSIF ([7]; 0 min, 1% rSIF, 37° C.): 100% | remaining at 0.05 h, 0.4 mg/mL [7, 13]: 82.4% | remaining at 0.25 h, 0.4 mg/mL [7, 13]: 41.4% | remaining at 1 h, 0.4 mg/mL [7, 13]: 1.6% | CL/F (in vivo [8]): 0.69 mL/h/kg | Tmax (in vivo [8]): 18 h | half-life (in vivo [8]): 125 h | CL/F (in vivo [9]): 7.37 mL/h/kg | Tmax (in vivo [9]): 12 h | half-life (in vivo [9]): 17.5 h | CL/F (in vivo [10]): 3.42 mL/h/kg | Tmax (in vivo [10]): 21.3 h | half-life (in vivo [10]): 44.7 h | frequency of positive CD+ T cell response (CDI>2.5) ([11]; CD4+ T cell assay): low | % Donor Response (CD4+ T cell response) [11, 14]: 9% | Median Response Strength in positive donors (CDI) [11, 14]: 0.7 CDI

CC[C@H](C)[C@H](NC(=O)[C@H](CC(C)C)NC(=O)[C@H](Cc1ccc(O)cc1)NC(=O)[C@H](CCC(=O)O)NC(=O)[C@@H](NC(=O)[C@H](Cc1ccccc1)NC(=O)[C@H](CCC(=O)O)NC(=O)C(C)(C)NC(=O)[C@H](CCC(N)=O)NC(=O)[C@H](C)NC(=O)[C@H](CCCCNC(=O)COCCOCCNC(=O)COCCOCCNC(=O)CC[C@H](NC(=O)CCCCCCCCCCCCCCCCCCC(=O)O)C(=O)O)NC(=O)[C@H](CCCCN)NC(=O)[C@H](CC(=O)O)NC(=O)[C@H](CC(C)C)NC(=O)[C@](C)(CC(C)C)NC(=O)[C@@H](NC(=O)[C@H](CO)NC(=O)[C@H](Cc1ccc(O)cc1)NC(=O)[C@H](CC(=O)O)NC(=O)[C@H](CO)NC(=O)[C@@H](NC(=O)[C@H](Cc1ccccc1)NC(=O)[C@@H](NC(=O)CNC(=O)[C@H](CCC(=O)O)NC(=O)C(C)(C)NC(=O)[C@@H](N)Cc1ccc(O)cc1)[C@@H](C)O)[C@@H](C)O)[C@@H](C)CC)[C@@H](C)CC)C(=O)N[C@@H](C)C(=O)NCC(=O)NCC(=O)N1CCC[C@H]1C(=O)N[C@@H](CO)C(=O)N[C@@H](CO)C(=O)NCC(=O)N[C@@H](C)C(=O)N1CCC[C@H]1C(=O)N1CCC[C@H]1C(=O)N1CCC[C@H]1C(=O)N[C@@H](CO)C(N)=O [Example 289] (H-Y[Aib]EGTFTSDYSI[αMeL]LDKK([AEEA-AEEA-γGlu-C20 diacid])AQ[Aib]EFIEYLIAGGPSSGAPPPS-NH2)
EC50 (human GLP-1R; [12]): 0.404 nM | frequency of positive CD+ T cell response (CDI>2.5) [1]: low

CC[C@H](C)[C@H](NC(=O)[C@H](CC(C)C)NC(=O)[C@H](Cc1ccc(O)cc1)NC(=O)[C@H](CCC(=O)O)NC(=O)[C@@H](NC(=O)[C@H](Cc1ccccc1)NC(=O)[C@H](C)NC(=O)C(C)(C)NC(=O)[C@H](CCC(N)=O)NC(=O)[C@H](C)NC(=O)[C@H](CCCCNC(=O)COCCOCCNC(=O)COCCOCCNC(=O)CC[C@H](NC(=O)CCCCCCCCCCCCCCCCC(=O)O)C(=O)O)NC(=O)[C@H](CCC(=O)O)NC(=O)[C@H](CC(=O)O)NC(=O)[C@H](CC(C)C)NC(=O)[C@](C)(CC(C)C)NC(=O)[C@@H](NC(=O)[C@H](CO)NC(=O)[C@H](Cc1ccc(O)cc1)NC(=O)[C@H](CC(=O)O)NC(=O)[C@H](CO)NC(=O)[C@@H](NC(=O)[C@H](Cc1ccccc1)NC(=O)[C@@H](NC(=O)CNC(=O)[C@H](CCC(=O)O)NC(=O)C(C)(C)NC(=O)[C@@H](N)Cc1ccc(O)cc1)[C@@H](C)O)[C@@H](C)O)[C@@H](C)CC)[C@@H](C)CC)C(=O)N[C@@H](CCC(=O)O)C(=O)NCC(=O)NCC(=O)N1CCC[C@H]1C(=O)N[C@@H](CO)C(=O)N[C@@H](CO)C(=O)NCC(N)=O [Example 303] (H-Y[Aib]EGTFTSDYSI[αMeL]LDEK([AEEA-AEEA-γGlu-C18 diacid])AQ[Aib]AFIEYLIEGGPSSG-NH2)
EC50 (human GLP-1R; [12]): 0.547 nM | frequency of positive CD+ T cell response (CDI>2.5) [1]: low
